Data: patent US12522587B2, “Cancer treatments targeting cancer stem cells” (Remedy Plan, Inc., priority 2018, dated 2026)

Tested on: AGS human gastric adenocarcinoma cells
Assay: Human microarray study (Affymetrix Clariom S) of treated AGS cells
Type: cell-based
Conditions: two days
Description: AGS human gastric adenocarcinoma cells were treated with compound I-1, or DMSO alone (as a negative control) for two days. After two days, RNA was isolated from compound I-1 treated cells and DMSO treated cells, in duplicate, and subjected to microarray analysis using AFFYMETRIX CLARIOM S microarrays. Data were represented as fold change relative to the compound I-1 treated cells, negative values represented genes that were on higher in compound I-1 treated cells than in DMSO treated cells, and positive values represented genes that were on higher in DMSO treated cells than in compound I-1 treated cells. Values were averaged for the duplicate samples. We included data for the genes whose expression was altered by more than 3 fold, either up or down, in response to compound I-1.
Negative numbers indicate fold upregulation upon drug treatment. Positive numbers indicate fold downregulation upon drug treatment. […] In addition, Chac1, PCK2, and SLC7A11 were all shown to have a tumor promoting activity and to be associated with the more dangerous and lethal forms of cancer, and these three genes were the three most strongly repressed genes measured in this analysis. There were other examples in the data that supported this model, but the overall model was that compound I-1 increased the expression of tumor suppressor genes, and decreased the expression of tumor promoting genes.

Compound: CCC(=O)N1CCc2cc(-c3ccc(C(=O)NCc4cccnc4)cc3)ccc21 [Compound I-1]
- expression of tumor promoting genes (microarray, overall model): decreased
- expression of tumor suppressor genes (microarray, overall model): increased
- Fold Change ABHD4 (negative = upregulated): −15.57 fold
- Fold Change ACAT2 (negative = upregulated): −5.41 fold
- Fold Change ACSS2 (negative = upregulated): −8.4 fold
- Fold Change AKR1B10 (negative = upregulated): −4.25 fold
- Fold Change AKR1B15 (negative = upregulated): −3.05 fold
- Fold Change AKR1C1 (negative = upregulated): −16.86 fold
- Fold Change AKR1C2 (negative = upregulated): −6.95 fold
- Fold Change AKR1C3 (negative = upregulated): −8.57 fold
- Fold Change ANO6 (negative = upregulated): −3.15 fold
- Fold Change ARHGEF3 (negative = upregulated): −6.93 fold
- Fold Change ARRDC3 (negative = upregulated): −5.99 fold
- Fold Change AVPI1 (negative = upregulated): −3.14 fold
- Fold Change BCL2L11 (negative = upregulated): −4 fold
- Fold Change BCL6 (negative = upregulated): −3.01 fold
- Fold Change BHLHE40 (negative = upregulated): −7.94 fold
- Fold Change CA5B (negative = upregulated): −4.1 fold
- Fold Change CBFA2T2 (negative = upregulated): −3.24 fold
- Fold Change CCNG2 (negative = upregulated): −3.58 fold
- Fold Change CDA (negative = upregulated): −3.79 fold
- Fold Change CDC42EP4 (negative = upregulated): −3.75 fold
- Fold Change CDKN1A (negative = upregulated): −3.11 fold
- Fold Change CNNM2 (negative = upregulated): −3.68 fold
- Fold Change CREBRF (negative = upregulated): −5.55 fold
- Fold Change CSF1 (negative = upregulated): −3.31 fold
- Fold Change CXCL17 (negative = upregulated): −4.1 fold
- Fold Change CYP51A1 (negative = upregulated): −4.74 fold
- Fold Change DBP (negative = upregulated): −10.5 fold
- Fold Change DHCR7 (negative = upregulated): −8.77 fold
- Fold Change DHCR24 (negative = upregulated): −3.44 fold
- Fold Change DNAJB4 (negative = upregulated): −3.09 fold
- Fold Change DNAJB5 (negative = upregulated): −3.84 fold
- Fold Change DNMBP (negative = upregulated): −4 fold
- Fold Change DUSP10 (negative = upregulated): −27.17 fold
- Fold Change EBP (negative = upregulated): −3.69 fold
- Fold Change EDN2 (negative = upregulated): −3 fold
- Fold Change EFNA1 (negative = upregulated): −5.15 fold
- Fold Change EPHA4 (negative = upregulated): −4.56 fold
- Fold Change EYA3 (negative = upregulated): −3.81 fold
- Fold Change F2RL1 (negative = upregulated): −3.37 fold
- Fold Change FAM46A (negative = upregulated): −4.76 fold
- Fold Change FAM46C (negative = upregulated): −3.6 fold
- Fold Change FAM160A1 (negative = upregulated): −3.86 fold
- Fold Change FASN (negative = upregulated): −5.82 fold
- Fold Change FDFT1 (negative = upregulated): −7.56 fold
- Fold Change FGA (negative = upregulated): −13.67 fold
- Fold Change FGG (negative = upregulated): −4.11 fold
- Fold Change G6PD (negative = upregulated): −3.11 fold
- Fold Change GALM (negative = upregulated): −3.17 fold
- Fold Change GATSL2 (negative = upregulated): −3.58 fold
- Fold Change GDF15 (negative = upregulated): −4.83 fold
- Fold Change GNE (negative = upregulated): −3.21 fold
- Fold Change GRHL3 (negative = upregulated): −4.96 fold
- Fold Change HHLA2 (negative = upregulated): −3.59 fold
- Fold Change HK1 (negative = upregulated): −6.34 fold
- Fold Change HMGCR (negative = upregulated): −4.8 fold
- Fold Change HMGCS1 (negative = upregulated): −9.9 fold
- Fold Change HMOX1 (negative = upregulated): −14.23 fold
- Fold Change HSPA1A; HSPA1B (negative = upregulated): −5.34 fold
- Fold Change HSPA1B; HSPA1A (negative = upregulated): −5.04 fold
- Fold Change HSPB8 (negative = upregulated): −4.71 fold
- Fold Change IDI1 (negative = upregulated): −5.77 fold
- Fold Change IL1RN (negative = upregulated): −4.04 fold
- Fold Change ILF2 (negative = upregulated): −3.2 fold
- Fold Change INPP5D (negative = upregulated): −3.12 fold
- Fold Change INSIG1 (negative = upregulated): −8.5 fold
- Fold Change JAG1 (negative = upregulated): −3.31 fold
- Fold Change JAK2 (negative = upregulated): −3.6 fold
- Fold Change KAT6B (negative = upregulated): −3.77 fold
- Fold Change LEMD1 (negative = upregulated): −3.16 fold
- Fold Change LIPG (negative = upregulated): −3.65 fold
- Fold Change LNX1 (negative = upregulated): −4.32 fold
- Fold Change LPIN1; MIR548S (negative = upregulated): −3.22 fold
- Fold Change LY6D (negative = upregulated): −4.81 fold
- Fold Change LYPD3 (negative = upregulated): −4.09 fold
- Fold Change MICA (negative = upregulated): −3.66 fold
- Fold Change MICB (negative = upregulated): −12.71 fold
- Fold Change MID1 (negative = upregulated): −3.25 fold
- Fold Change MSMO1 (negative = upregulated): −9.47 fold
- Fold Change MT1E (negative = upregulated): −3.03 fold
- Fold Change MT1L (negative = upregulated): −3 fold
- Fold Change MTSS1L (negative = upregulated): −3.41 fold
- Fold Change MVD (negative = upregulated): −3.82 fold
- Fold Change MVK (negative = upregulated): −3.11 fold
- Fold Change MXD1 (negative = upregulated): −6.23 fold
- Fold Change MYLIP; MIR4639 (negative = upregulated): −3.88 fold
- Fold Change NEU1 (negative = upregulated): −4.89 fold
- Fold Change NEURL3 (negative = upregulated): −3.41 fold
- Fold Change NFAT5 (negative = upregulated): −3.32 fold
- Fold Change NFKBIA (negative = upregulated): −4.97 fold
- Fold Change NR1D1 (negative = upregulated): −23.3 fold
- Fold Change NR1D2 (negative = upregulated): −3.01 fold
- Fold Change NSDHL (negative = upregulated): −3.29 fold
- Fold Change OCLM (negative = upregulated): −3.22 fold
- Fold Change OSGIN1 (negative = upregulated): −3.63 fold
- Fold Change OTUD1 (negative = upregulated): −3.29 fold
- Fold Change OVOL1 (negative = upregulated): −4.01 fold
- Fold Change PADI1 (negative = upregulated): −3.48 fold
- Fold Change PCDH7 (negative = upregulated): −3.81 fold
- Fold Change PDGFRL (negative = upregulated): −6.65 fold
- Fold Change PERI; MIR6883 (negative = upregulated): −16.75 fold
- Fold Change PGM2L1 (negative = upregulated): −3.76 fold
- Fold Change PIM1 (negative = upregulated): −3.7 fold
- Fold Change PLK2 (negative = upregulated): −3.13 fold
- Fold Change PLPP3 (negative = upregulated): −3.74 fold
- Fold Change POLR2L (negative = upregulated): −3.14 fold
- Fold Change PRDM1 (negative = upregulated): −3.06 fold
- Fold Change PRSS22 (negative = upregulated): −4.6 fold
- Fold Change PSCA (negative = upregulated): −3.18 fold
- Fold Change PVRL1 (negative = upregulated): −3.57 fold
- Fold Change PVRL4 (negative = upregulated): −3.32 fold
- Fold Change RAB30 (negative = upregulated): −3.82 fold
- Fold Change RASSF5 (negative = upregulated): −5.9 fold
- Fold Change RBM26 (negative = upregulated): −6.5 fold
- Fold Change REG1A (negative = upregulated): −3.05 fold
- Fold Change RHOV (negative = upregulated): −4.66 fold
- Fold Change RND1 (negative = upregulated): −5.3 fold
- Fold Change RRAGC (negative = upregulated): −3.01 fold
- Fold Change RSRP1 (negative = upregulated): −3.61 fold
- Fold Change RYBP (negative = upregulated): −3.38 fold
- Fold Change SAT2 (negative = upregulated): −3.99 fold
- Fold Change SC5D (negative = upregulated): −3.39 fold
- Fold Change SEC24D (negative = upregulated): −3.84 fold
- Fold Change SLC20A1 (negative = upregulated): −4.87 fold
- Fold Change SLC25A25 (negative = upregulated): −3.73 fold
- Fold Change SLC30A1 (negative = upregulated): −4.84 fold
- Fold Change SLN (negative = upregulated): −5.63 fold
- Fold Change SPATA5 (negative = upregulated): −3.26 fold
- Fold Change SQLE (negative = upregulated): −4.32 fold
- Fold Change STK17B (negative = upregulated): −6.26 fold
- Fold Change SUSD6 (negative = upregulated): −3.48 fold
- Fold Change TAF5 (negative = upregulated): −3.41 fold
- Fold Change TEF (negative = upregulated): −6.45 fold
- Fold Change TGFBR3 (negative = upregulated): −3.86 fold
- Fold Change TIAL1 (negative = upregulated): −4.62 fold
- Fold Change TKT (negative = upregulated): −3.56 fold
- Fold Change TMEM2 (negative = upregulated): −4.49 fold
- Fold Change TMEM263 (negative = upregulated): −3.01 fold
- Fold Change TMPRSS2 (negative = upregulated): −5.06 fold
- Fold Change TNFSF13B (negative = upregulated): −4.12 fold
- Fold Change TRIM24 (negative = upregulated): −3.01 fold
- Fold Change UGDH (negative = upregulated): −4.16 fold
- Fold Change YBX1 (negative = upregulated): −3.62 fold
- Fold Change ZNF114 (negative = upregulated): −7.07 fold
- Fold Change ZNRF3 (negative = upregulated): −3.14 fold
- Fold Change ZSWIM6 (negative = upregulated): −3.28 fold
- Fold Change SQSTM1 (negative = upregulated, first SQSTM1 entry): −4.27 fold
- Fold Change SQSTM1 (negative = upregulated, second SQSTM1 entry): −3.5 fold
- Fold Change AARS (positive = downregulated): 3.12 fold
- Fold Change AJUBA (positive = downregulated): 8.65 fold
- Fold Change AKTIP (positive = downregulated): 3.39 fold
- Fold Change ARHGEF2 (positive = downregulated): 4.73 fold
- Fold Change ASNS (positive = downregulated): 12.78 fold
- Fold Change ASS1 (positive = downregulated): 7.34 fold
- Fold Change ATF5; MIR4751 (positive = downregulated): 6.55 fold
- Fold Change BRCA1 (positive = downregulated): 4.22 fold
- Fold Change BTC (positive = downregulated): 5.04 fold
- Fold Change C4BPB (positive = downregulated): 3.69 fold
- Fold Change C5orf28 (positive = downregulated): 4.4 fold
- Fold Change C12orf4 (positive = downregulated): 3.45 fold
- Fold Change C14orf79 (positive = downregulated): 3.68 fold
- Fold Change C17orf80 (positive = downregulated): 4.3 fold
- Fold Change CARS (positive = downregulated): 5.53 fold
- Fold Change CCDC125 (positive = downregulated): 3.31 fold
- Fold Change CCDC138 (positive = downregulated): 3.07 fold
- Fold Change CDC7 (positive = downregulated): 3.01 fold
- Fold Change CDH11 (positive = downregulated): 4.69 fold
- Fold Change CDX2 (positive = downregulated): 3.07 fold
